In patent publication US11338007B2, “Combination formulation of three antiviral compounds” (priority 2016, dated 2022):

How the values were obtained:
[1] = Solid-state compatibility of sofosbuvir/velpatasvir SSD/voxilaprevir SSD granules (Table 7); format: physicochemical; settings: for LS / Total Imp./Deg. Products: granules Lot F
Procedure: Sofosbuvir, velpatasvir SSD, and voxilaprevir SSD are chemically and physically compatible in the solid-state. The solid-state compatibility of sofosbuvir, velpatasvir SSD, and voxilaprevir SSD was evaluated by preparing a powder blend composed of 49.75% w/w sofosbuvir, 24.88% w/w of velpatasvir SSD, and 24.88% w/w of voxilaprevir SSD, and 0.25% w/w magnesium stearate (added as a lubricant). The powder blend was dry granulated using a roller compactor and then milled. The resulting granules (Lot F) contained 400 mg of sofosbuvir, 100 mg velpatasvir (as 200 mg velpatasvir SSD), and 100 mg voxilaprevir (as 200 mg voxilaprevir SSD) equivalent to the relative compositions in the sofosbuvir/velpatasvir/voxilaprevir tablet: 400/100/100 mg.
The chemical and physical stability of sofosbuvir/velpatasvir SSD/voxilaprevir SSD granules, packaged in glass vials (protected from light), was evaluated for 6 months at 25° C./60% RH and 40° C./75% RH under open and closed conditions. As summarized in Table 7, sofosbuvir, velpatasvir, and voxilaprevir were chemically stable with no increase in total impurities/degradation products of sofosbuvir (remaining at 0.0%), velpatasvir (remaining between 0.4 and 0.5%), and voxilaprevir (remaining between 1.1 and 1.4%) after a 6 month storage period. No upward trend in the content of degradation products was observed over the time period studied.

[2] = Stress studies: stability of tablets made with stressed VEL SSD/VOX SSD (water, residual solvent, peroxide, reprocessing, potency; Tables 16-21); format: physicochemical; settings: for LS / Total Imp./Deg.: SSD water content study
Procedure: The impact of the following stressors on the physical and chemical stability of the sofosbuvir/velpatasvir SSD/voxilaprevir SSD tablets were evaluated:
(i) Voxilaprevir SSD and velpatasvir SSD, and sofosbuvir/velpatasvir SSD/voxilaprevir SSD tablet water content;
(ii) Copovidone peroxide content in velpatasvir SSD and in voxilaprevir SSD (iii) Reprocessed velpatasvir SSD and voxilaprevir SSD;
(iv) Voxilaprevir SSD and velpatasvir SSD potency (varying the ratio of velpatasvir or voxilaprevir to copovidone); and
(v) Seeding sofosbuvir/velpatasvir SSD/voxilaprevir SSD tablets with crystalline voxilaprevir Form VIII and Form X drug substances.

HCV RNA = assay: Emax PK/PD modeling of sofosbuvir dose (HCV RNA change from baseline); format: in vivo, human; settings: mean major metabolite AUCtau for 400 mg dose
Procedure: The sofosbuvir dose selected for the tablet formulation is 400 mg once daily. Support for the 400 mg sofosbuvir dose can be derived from Emax PK/PD modeling with early virological and human exposure data which also supports the selection of a 400 mg sofosbuvir dose over others tested.
The mean sofosbuvir major metabolite AUCtau for the 400 mg sofosbuvir dose is associated with approximately 77% of the maximal HCV RNA change from baseline achievable as determined by this model, a value which is on the cusp of the plateau of the exposure-response sigmoidal curve. In a sigmoidal Emax model, there is a relatively linear exposure-response relationship in the 20 to 80% maximal effect range. Therefore, given that sofosbuvir exposure with 200 mg tablets appears dose-proportional with single doses up to 1200 mg, doses below 400 mg are expected to yield considerable reductions in the magnitude of HCV RNA change from baseline.

[3] = 25° C./60% RH (Closed), 3 months
[4] = 25° C./60% RH (Closed), 6 months
[5] = 40° C./75% RH (Closed), 1 month
[6] = 40° C./75% RH (Closed), 3 months
[7] = 40° C./75% RH (Closed), 6 months
[8] = open (no desiccant), 40° C./75% RH, 4 weeks
[9] = tablets from SSDs with copovidone peroxides 544 ppm (VEL SSD), 655 ppm (VOX SSD), Initial, time 0
[10] = tablets from SSDs with copovidone peroxides 544 ppm (VEL SSD), 655 ppm (VOX SSD), closed, 1 g desiccant, 25° C./60% RH, 12 weeks
[11] = tablets from SSDs with copovidone peroxides 544 ppm (VEL SSD), 655 ppm (VOX SSD), closed, 1 g desiccant, 40° C./75% RH, 4 weeks
[12] = tablets from SSDs with copovidone peroxides 544 ppm (VEL SSD), 655 ppm (VOX SSD), closed, 1 g desiccant, 40° C./75% RH, 12 weeks
[13] = tablets from SSDs with copovidone peroxides 544 ppm (VEL SSD), 655 ppm (VOX SSD), open, no desiccant, 40° C./75% RH, 4 weeks
[14] = tablets from VEL SSD 6.0% residual ethanol, VOX SSD 2.1% residual acetone, Initial, time 0
[15] = tablets from VEL SSD 6.0% residual ethanol, VOX SSD 2.1% residual acetone, closed, 1 g desiccant, 25° C./60% RH, 12 weeks
[16] = tablets from VEL SSD 6.0% residual ethanol, VOX SSD 2.1% residual acetone, closed, 1 g desiccant, 40° C./75% RH, 4 weeks
[17] = tablets from VEL SSD 6.0% residual ethanol, VOX SSD 2.1% residual acetone, closed, 1 g desiccant, 40° C./75% RH, 12 weeks
[18] = tablets from VEL SSD 6.0% residual ethanol, VOX SSD 2.1% residual acetone, open, no desiccant, 40° C./75% RH, 4 weeks
[19] = tablets from VEL SSD 7.0% water, VOX SSD 3.2% water, Initial, time 0
[20] = tablets from VEL SSD 7.0% water, VOX SSD 3.2% water, closed, 1 g desiccant, 25° C./60% RH, 12 weeks
[21] = tablets from VEL SSD 7.0% water, VOX SSD 3.2% water, closed, 1 g desiccant, 40° C./75% RH, 4 weeks
[22] = tablets from VEL SSD 7.0% water, VOX SSD 3.2% water, closed, 1 g desiccant, 40° C./75% RH, 12 weeks
[23] = tablets from twice reprocessed VEL SSD and VOX SSD, Initial, time 0
[24] = tablets from twice reprocessed VEL SSD and VOX SSD, closed, 1 g desiccant, 25° C./60% RH, 12 weeks
[25] = tablets from twice reprocessed VEL SSD and VOX SSD, closed, 1 g desiccant, 40° C./75% RH, 4 weeks
[26] = tablets from twice reprocessed VEL SSD and VOX SSD, closed, 1 g desiccant, 40° C./75% RH, 12 weeks
[27] = tablets from twice reprocessed VEL SSD and VOX SSD, open, no desiccant, 40° C./75% RH, 4 weeks

CC(C)OC(=O)C(C)N[P@](=O)(OC[C@H]1O[C@@H](n2ccc(=O)[nH]c2=O)[C@](C)(F)[C@@H]1O)Oc1ccccc1 (stereo in doubt) [sofosbuvir, (S)-isopropyl 2-(((S)-(((2R,3R,4R,5R)-5-(2,4-dioxo-3,4-dihydropyrimidin-1(2H)-yl)-4-fluoro-3-hydroxy-4-methyltetrahydrofuran-2-yl)methoxy)(phenoxy)phosphoryl)amino)propanoate]
LS [1, 3]: 101.1% | Total Imp./Deg. Products [1, 3]: 0.0% | LS [1, 4]: 99.1% | Total Imp./Deg. Products [1, 4]: 0.0% | LS [1, 5]: 99.5% | Total Imp./Deg. Products [1, 5]: 0.0% | LS [1, 6]: 99.4% | Total Imp./Deg. Products [1, 6]: 0.0% | LS [1, 7]: 97.2% | Total Imp./Deg. Products [1, 7]: 0.0% | LS ([1]; 40° C./75% RH (Open), 1 month): 101.3% | Total Imp./Deg. Products ([1]; 40° C./75% RH (Open), 1 month): 0.0% | LS ([1]; 40° C./75% RH (Open), 3 months): 98.5% | Total Imp./Deg. Products ([1]; 40° C./75% RH (Open), 3 months): 0.0% | LS ([1]; 40° C./75% RH (Open), 6 months): 95.6% | Total Imp./Deg. Products ([1]; 40° C./75% RH (Open), 6 months): 0.0% | LS ([1]; Initial, 0 months): 103.5% | Total Imp./Deg. Products ([1]; Initial, 0 months): 0.0% | total impurities/degradation products ([1]; granules, over 6 month storage at 25° C./60% RH and 40° C./75% RH, open and closed): 0.0% | total impurities/degradation products ([2]; SSD potency study, tablet Lots A-D, all conditions): 0.0% | LS ([2]; Initial): 100.5% | Total Imp./Deg. ([2]; Initial): 0.0% | LS [2, 8]: 101.2% | Total Imp./Deg. [2, 8]: 0.0% | LS (%) ([2]; tablets Lot A (super-potent VEL SSD, super-potent VOX SSD), Initial, time 0): 100.1% | LS (%) ([2]; tablets Lot A (super-potent VEL SSD, super-potent VOX SSD), closed, 1 g desiccant, 25° C./60% RH, 12 weeks): 99.0% | LS (%) ([2]; tablets Lot A (super-potent VEL SSD, super-potent VOX SSD), closed, 1 g desiccant, 40° C./75% RH, 4 weeks): 99.9% | LS (%) ([2]; tablets Lot A (super-potent VEL SSD, super-potent VOX SSD), closed, 1 g desiccant, 40° C./75% RH, 12 weeks): 99.8% | LS (%) ([2]; tablets Lot A (super-potent VEL SSD, super-potent VOX SSD), open, without cap, 40° C./75% RH, 4 weeks): 100.3% | LS (%) ([2]; tablets Lot B (sub-potent VEL SSD, sub-potent VOX SSD), Initial, time 0): 99.9% | LS (%) ([2]; tablets Lot B (sub-potent VEL SSD, sub-potent VOX SSD), closed, 1 g desiccant, 25° C./60% RH, 12 weeks): 99.4% | LS (%) ([2]; tablets Lot B (sub-potent VEL SSD, sub-potent VOX SSD), closed, 1 g desiccant, 40° C./75% RH, 4 weeks): 99.8% | LS (%) ([2]; tablets Lot B (sub-potent VEL SSD, sub-potent VOX SSD), closed, 1 g desiccant, 40° C./75% RH, 12 weeks): 98.7% | LS (%) ([2]; tablets Lot B (sub-potent VEL SSD, sub-potent VOX SSD), open, without cap, 40° C./75% RH, 4 weeks): 100.1% | LS (%) ([2]; tablets Lot C (sub-potent VEL SSD, super-potent VOX SSD), Initial, time 0): 99.5% | LS (%) ([2]; tablets Lot C (sub-potent VEL SSD, super-potent VOX SSD), closed, 1 g desiccant, 25° C./60% RH, 12 weeks): 99.6% | LS (%) ([2]; tablets Lot C (sub-potent VEL SSD, super-potent VOX SSD), closed, 1 g desiccant, 40° C./75% RH, 4 weeks): 99.6% | LS (%) ([2]; tablets Lot C (sub-potent VEL SSD, super-potent VOX SSD), closed, 1 g desiccant, 40° C./75% RH, 12 weeks): 99.1% | LS (%) ([2]; tablets Lot C (sub-potent VEL SSD, super-potent VOX SSD), open, without cap, 40° C./75% RH, 4 weeks): 99.4% | LS (%) ([2]; tablets Lot D (super-potent VEL SSD, sub-potent VOX SSD), Initial, time 0): 100.0% | LS (%) ([2]; tablets Lot D (super-potent VEL SSD, sub-potent VOX SSD), closed, 1 g desiccant, 25° C./60% RH, 12 weeks): 99.5% | LS (%) ([2]; tablets Lot D (super-potent VEL SSD, sub-potent VOX SSD), closed, 1 g desiccant, 40° C./75% RH, 4 weeks): 100.1% | LS (%) ([2]; tablets Lot D (super-potent VEL SSD, sub-potent VOX SSD), closed, 1 g desiccant, 40° C./75% RH, 12 weeks): 98.9% | LS (%) ([2]; tablets Lot D (super-potent VEL SSD, sub-potent VOX SSD), open, without cap, 40° C./75% RH, 4 weeks): 99.8% | total impurities/degradation products ([2]; tablets from SSDs with copovidone 544 ppm (VEL SSD) and 655 ppm (VOX SSD) peroxides): 0.0% | LS (%) [2, 9]: 100.0% | Total Imp./Deg. (%) [2, 9]: 0.0% | LS (%) [2, 10]: 99.3% | Total Imp./Deg. (%) [2, 10]: 0.0% | LS (%) [2, 11]: 99.3% | Total Imp./Deg. (%) [2, 11]: 0.0% | LS (%) [2, 12]: 98.9% | Total Imp./Deg. (%) [2, 12]: 0.0% | LS (%) [2, 13]: 100.3% | Total Imp./Deg. (%) [2, 13]: 0.0% | total impurities/degradation products ([2]; tablets from VEL SSD 6.0% residual ethanol and VOX SSD 2.1% residual acetone, all conditions): 0.0% | LS (%) [2, 14]: 101.2% | Total Imp./Deg. (%) [2, 14]: 0.0% | LS (%) [2, 15]: 100.5% | Total Imp./Deg. (%) [2, 15]: 0.0% | LS (%) [2, 16]: 101.5% | Total Imp./Deg. (%) [2, 16]: 0.0% | LS (%) [2, 17]: 100.9% | Total Imp./Deg. (%) [2, 17]: 0.0% | LS (%) [2, 18]: 100.9% | Total Imp./Deg. (%) [2, 18]: 0.0% | total impurities/degradation products ([2]; tablets from VEL SSD 7.0% and VOX SSD 3.2% water content, all conditions): 0.0% | LS (%) [2, 19]: 100.5% | Total Imp./Deg. (%) [2, 19]: 0.0% | LS (%) [2, 20]: 99.9% | Total Imp./Deg. (%) [2, 20]: 0.0% | LS (%) [2, 21]: 101.6% | Total Imp./Deg. (%) [2, 21]: 0.0% | LS (%) [2, 22]: 100.4% | Total Imp./Deg. (%) [2, 22]: 0.0% | LS (%) [2, 23]: 100.7% | Total Imp./Deg. (%) [2, 23]: 0.0% | total impurities/degradation products ([2]; tablets from twice reprocessed VEL SSD and VOX SSD, all conditions): 0.0% | LS (%) [2, 24]: 99.9% | Total Imp./Deg. (%) [2, 24]: 0.0% | LS (%) [2, 25]: 100.3% | Total Imp./Deg. (%) [2, 25]: 0.0% | LS (%) [2, 26]: 99.1% | Total Imp./Deg. (%) [2, 26]: 0.0% | LS (%) [2, 27]: 96.4% | Total Imp./Deg. (%) [2, 27]: 0.0% | maximal HCV RNA change from baseline achievable (Emax model) (HCV RNA): approximately 77%
